This note sets out measurements from patent US9175022B2, “Compounds for the treatment of proliferative disorders” (Synta Pharmaceuticals Corp., priority 2005, dated 2015).

For one data set, the system named is CV-1 cells. The data set can be described thus: Microtubule disruption in cells resistant to colchicine and vincristine. Type of data set: cell-based. Particulars: 500 nM; 24, 48 and 72 hr. The procedure: The effects of compounds of the invention on microtubules can be studied in CV-1 cells. The microtubules of CV-1 cells are known to be resistant to the depolymerizing effects of colchicine and vincristine. CV-1 cells are treated with 500 nM of a compound of the invention, or vincristine or colchicines. At 24, 48 and 72 hr the cells are fixed and stained to examine microtubule structure. In cells treated with compounds of the invention, microtubule structures are expected to be diminished compared to untreated cells.

The test system of data set [1] is MES-SA/DX5 (uterine sarcoma). As to the kind of experiment: In vitro cytotoxicity, MTS assay, 72 hours. Type of data set: cell-based. As to conditions: Homo sapiens, MES-SA/DX5 multi-drug resistant, read-out: IC50 (concentration required to inhibit 50% tumor cell growth). On the procedure: (§1) The in vitro cytotoxicity of the compounds of the invention was determined in the following human cell lines: HL-60, HL-60-TX1000 (MDR), MES-SA and MES-SA/DX5 (uterine sarcoma). MES-SA is a model of uterine sarcoma, and the cells are sensitive to a number of chemotherapeutic agents including doxorubicin, dactinomycin, mitomycin C, taxol and bleomycin. The MES-SA/Dx5 cell line was established in the presence of increasing concentrations of doxorubicin. […] All cells except HL-60-TX1000 were purchased from ATCC. HL-60, a model of myeloid leukemia, was from ATCC and HL60/TX1000 was a gift from Dr. Bhalla of Emory University School of Medicine. HL-60/TX1000 was isolated in vitro by subculturing HL-60 in progressively higher concentration of Taxol. HL-60/TX1000 cells over-express mdr-1 mRNA and p-glycoprotein, as determined by western blot and immunofluorescence labeling with antiPGP antibodies
(§2) The cell lines were maintained in RPMI1640 (GIBCO) supplemented with 10% FCS, 100 units/mL penicillin, 100 ug/ml streptomycin, and 2 mM L-glutamine. Cells were split every third day and diluted to a concentration of 2×10^5 cells/mL one day before the experiment was performed. All experiments were performed on exponentially growing cell cultures. Cell densities were 2.5×10^4 cells/mL in all experiments.
(§3) Test compounds were prepared by dissolving the compounds at a concentration of 10 mM in 100% DMSO. Final concentrations 10, 1, 0.1, 0.01 and 0.001 μM were obtained by diluting the stock solution directly into the tissue culture medium. Cells were incubated with varying concentrations of test compounds for 72 hours and the IC50 was determined by MTS (i.e. […]) assay. IC50 in this context stands for the concentration of a compound required to inhibit 50% tumor cell growth.
Background: Tetrazolium dyes change colour on reduction, which living cells bring about.

In another data set the test system is HL-60. As to the kind of experiment: In vitro cytotoxicity, MTS assay, 72 hours. The data set is classed as cell-based. As to conditions: Homo sapiens, HL-60, 72 hours, read-out: IC50 (concentration required to inhibit 50% tumor cell growth). The procedure: as §1, §2, §3
The next data set has as its system HL-60-TX1000 (MDR). As to the kind of experiment: In vitro cytotoxicity, MTS assay, 72 hours. Type of data set: cell-based. As to conditions: Homo sapiens, HL60/TX1000, HL-60-TX1000 multi-drug resistant, read-out: IC50 (concentration required to inhibit 50% tumor cell growth). On the procedure:
as §1, §2, §3

A further data set relates to MES-SA. As to the kind of experiment: In vitro cytotoxicity, MTS assay, 72 hours. Type of data set: cell-based. Particulars: Homo sapiens, read-out: IC50 (concentration required to inhibit 50% tumor cell growth). On the procedure: as §1, §2, §3
For data set [2], the system named is MDA-MB-435S melanoma cells or RERF-LC-AI lung tumor cells. As to the kind of experiment: Anti-tumor activity in nude mouse xenograft models. The data set is classed as in vivo. Particulars: i.v. The procedure: The human tumor cell line, MDA-MB-435S (ATCC #HTB-129; G. Ellison, et al., Mol. Pathol. 55:294-299, 2002), is obtained from the American Type Culture Collection (ATCC; Manassas, Va., USA). The human tumor cell line, RERF-LC-AI (RCB0444; S. Kyoizumi, et al., Cancer. Res. 45:3274-3281, 1985), is obtained from the Riken Cell Bank (RCB; Tsukuba, Ibaraki, Japan). The cell lines are cultured in growth media prepared from 50% Dulbecco's Modified Eagle Medium (high glucose), 50% RPMI Media 1640, 10% fetal bovine serum (FBS), 1% 100×L-glutamine, 1% 100× Penicillin-Streptomycin, 1% 100× sodium pyruvate and 1% 100×MEM non-essential amino acids. FBS is obtained from ATCC and all other reagents are obtained from Invitrogen Corp. (Carlsbad, Calif., USA). […] The supernatant is aspirated and the cell pellet is resuspended in 10 mL of growth media and the cell number is determined using a hemocytometer. […]
Tumors are then permitted to develop in vivo until they reached approximately 100-200 mm^3 in volume, which typically required 2-3 weeks following implantation. Tumor volumes (V) are calculated by caliper measurement of the width (W), length (L) and thickness (T) of tumors using the following formula: V=0.5326×(L×W×T). […]

Data set [3] relates to CHO-α-tubulin-YFP or MCF7-α-tubulin-YFP cells. The data set can be described thus: Inhibition of tubulin polymerization, tubulin-YFP fluorescence imaging. Type of data set: cell-based. Particulars: living or fixed cells, fluorescence microscopy. From the text: Wild-type Chinese Hamster Ovary cells (WT CHO) cells are maintained in Ham's F-12 medium supplemented with 10% fetal bovine serum (FBS; HyClone, Logan, Utah). Cells of low density (−20%) growing on 2-well chambered cover-slips (Labtek (Campbell, Calif.) or Fisher Scientific) are transfected with a mammalian expression vector encoding α-tubulin-YFP (Clontech, Palo Alto, Calif.) with the use of FuGENE 6 (Roche Molecular Biochemicals, Indianapolis, Ind.), according to the manufacturer's instructions. Twenty-four hours after transfection, the cells are cultured in 400 μg/ml G418 (Invitrogen, Carlsbad, Calif.)-containing selection medium for 2 weeks. Living cells are examined using a fluorescent microscope for α-tubulin-YFP expression. […] Expressed tubulin-YFP is detected as a single band in Western blots. […]
CHO-α-tubulin-YFP or MCF7-α-tubulin-YFP cells are cultured in 2-well chambered cover-slips (Labtek (Campbell, Calif.) or Fisher Scientific) for 24 hours before treatment with a compound of the invention. […] Tubulin-YFP fluorescence in living cells or fixed cells is captured using a standard filter for FITC and objectives of 20× or 60× magnification on a Nikon TE300 microscope with a Leica DC50 color digital camera (Leica, Bannockburn, Ill.) or a CoolSnap HQ monochrome CCD camera (Photonetrics, Tucson, Ariz.). […]

Each structure is given as a SMILES string.

On to `CC[C@]1(O)C[C@H]2CN(CCc3c([nH]c4ccccc34)[C@@](C(=O)OC)(c3cc4c(cc3OC)N(C=O)[C@H]3[C@@](O)(C(=O)OC)[C@H](OC(C)=O)[C@]5(CC)C=CCN6CC[C@]43[C@@H]65)C2)C1` [vincristine, Vincristine], for which the microtubule structure result in the data set on CV-1 cells is listed as “Disorganized but clear microtubule structures”.

On to `COc1cc(-n2nncc2-c2ccc(N(C)C)cc2)cc(OC)c1OC` [Compound 5, 1-(3,4,5-trimethoxy-phenyl)-5-[4-(N,N-dimethylamino)-phenyl]-1H-[1,2,3]triazole], for which the IC50 in data set [1] stood at 29 nM; with HL-60, 41.5 nM; with HL-60-TX1000 (MDR) it was 7.5 nM; with MES-SA, 68.5 nM.

`CC(=O)O[C@H]1C(=O)[C@@]2(C)[C@H]([C@H](OC(=O)c3ccccc3)[C@]3(O)C[C@H](OC(=O)[C@H](O)[C@@H](NC(=O)c4ccccc4)c4ccccc4)C(C)=C1C3(C)C)[C@]1(OC(C)=O)CO[C@@H]1C[C@@H]2O` [paclitaxel, reference compound]: in data set [2] (3 days per week, 9-10 doses, compounds 6.25, 12.5 and 25 mg/kg, paclitaxel 7.5 mg/kg), the tumor growth result was “decreased tumor growth”.

Turning to `COc1ccc(-c2cnnn2-c2cc(OC)c(OC)c(OC)c2)cc1` [Compound 3, 1-(3,4,5-trimethoxy-phenyl)-5-(4-methoxy-phenyl)-1H-[1,2,3]triazole], the “overt toxicity (effect on body weights)” value in data set [2] (nude mice) is reported as “minimal”. The IC50 in data set [1] amounted to 37 nM; in the data set on HL-60, 53 nM; in the data set with HL-60-TX1000 (MDR), 20 nM; in the data set on MES-SA, 52 nM.

Consider `COc1cc2c(c(OC)c1OC)-c1ccc(OC)c(=O)cc1[C@@H](NC(C)=O)CC2` [colchicines, colchicine], for which the microtubule structure result in the data set on CV-1 cells was “Disorganized but clear microtubule structures”.

As to `CC(=O)O[C@H]1C(=O)[C@@]2(C)[C@H]([C@H](OC(=O)c3ccccc3)[C@]3(O)C[C@H](OC(=O)[C@H](O)[C@@H](NC(=O)c4ccccc4)c4ccccc4)C(C)=C1C3(C)C)[C@]1(OC(C)=O)CO[C@@H]1C[C@@H]2O` [Taxol, paclitaxel, reference compound], the “tubulin-YFP labeled microtubule pattern” value in data set [3] is reported as “microtubule bundle formation”. Also, the IC50 was 5000 nM in data set [1], 2 nM in the data set with HL-60, 1000 nM in the data set on HL-60-TX1000 (MDR) and 5 nM in the data set with MES-SA.
